Data published in patent US9169509B2, “Topoisomerase 2b as a predictor of susceptibility to anthracycline-induced cardiotoxicity” (Board of Regents, The University of Texas System, priority 2013, dated 2015).
Peptide text beside a SMILES is read from it. * marks the point of attachment. Cbz = O=C(OCc1ccccc1)*

How the values were obtained:
Top2b [1] = target: T1, Top2b (Homo sapiens, UniProt Q02880); test: Immunoblot of Top2b in U2OS cells treated with Dex and/or MG132; type: cell-based
T1 construct: endogenous in cells; host or cells: U2OS
Procedure: (§1) FIG. 10. […] U2OS cells were treated with 100 mM Dex and/or 10 mM MG132, a proteosome inhibitor, for 2, 4, or 6 hours. Cell lysates were immunoblotted with anti-Top2a, Top2b, or actin antibodies.
(§2) The effect of Dex treatment of Top2a levels was also tested. Briefly, U2OS cells were treated with 100 mM Dex and/or 10 mM MG132 (a proteosome inhibitor) for 2, 4, or 6 hours. Cell lysates were immunoblotted with anti-Top2a, Top2b, or actin antibodies.

mouse heart = test: Cardiac MRI for measuring cardiac function after chronic doxorubicin
Procedure: Before Cre induction, cardiac MRI scan was performed on each mouse to examine the baseline ejection fraction. Cardiomyocyte-specific Cre induction was carried out by treating mice with tamoxifen. […] Doxorubicin treatment (5 mg/kg, i.p., once a week for 5 weeks) was started 7 days after the second MRI scan. Two weeks after the last dose of doxorubicin, a third MRI scan was performed (FIG. 6a).
Every mouse in the EF experiments received 3 MRI scans, i.e., a baseline scan, a second scan 2 weeks after the end of tamoxifen treatment, and a third scan 2 weeks after the last dose of doxorubicin. […] Mice were anesthetized with isoflurane (2.5% in 97.5% O2), and scanned on a 7.0 T Biospec small animal scanner (Bruker Biospin Inc., Billerica, Mass.). Imaging gradients with 60 mm inner diameter (ID) were used with a 35 mm ID linear birdcage-style volume resonator. T1-weighted anatomic reference images were acquired using a three dimension (3D) fast low-angle shot (FLASH) gradient echo sequence. A retrospectively gated FLASH pulse sequence was used to acquire cardiac cine images with excellent contrast between bright blood and adjacent myocardium. To measure volumetric left ventricular ejection fraction (LVEF), at least 6 short axis images were scanned at 1 mm interval from the apex to the base of the heart. End-diastolic (ED) and end-systolic (ES) left ventricular volumes were obtained by the biplane area length method, and LVEF was calculated with the equation: [(ED-ES)/ED]/100.
Two weeks after completion of tamoxifen treatment mice were treated with doxorubicin or drug vehicle. Two cohorts of mice were treated with different schedules. […] To evaluate the chronic effect of doxorubicin on cardiac function, doxorubicin (5 mg/kg, i.p.) was administered once a week for 5 weeks, and cardiac function was examined 2 weeks after the last dose of doxorubicin by using MRI.
The effect of chronic doxorubicin treatment (5 mg/kg, ip, once a week for 5 weeks) was evaluated for its effect on ejection fraction.

heart sections = test: Detection of apoptosis in heart sections (TUNEL assay); type: in vivo, mouse; details: dexrazoxane 100 mg/kg ip 8 hrs prior to doxorubicin 25 mg/kg ip; hearts 16 hrs after doxorubicin
Procedure: Apoptosis was detected by using TUNEL assay on heart sections. Heart harvest, sectioning, and storage were described above. Heart sections were warmed to room temperature before the apoptotic nuclei were stained by using a commercially available kit (In Situ Cell Death Detection Kit, Cat. No. 12156792910, Roche Applied Science). The entire staining procedures were performed according to the manufacturer's instructions. The nuclei were stained with DAPI (Sigma) before the slides were sealed and examined with an Olympus epifluorescence microscope (Model BX51). The apoptotic nuclei and the total nuclei per heart section were counted at 200× magnification. The apoptotic nuclei in 5 heart sections of each mouse were counted and averaged.
The cardio-protective effect of Dex against doxirubin-induced apoptosis was assessed in heart tissues. Dexrazoxane (100 mg/kg) was injected (ip) 8 hrs prior to doxorubicin (25 mg/kg) injection (ip). One group received only doxorubicin and a second group received only dexrazoxane. Hearts were harvested 16 hrs after doxorubicin treatment. The numbers of TUNEL-positive nuclei were counted in five fields in each heart section.

[2] = test system: DNA double strand breaks in the heart; test: Detection of DNA double strand breaks (γ-H2AX staining) in heart sections; type: in vivo, mouse; details: dexrazoxane 100 mg/kg ip 8 hrs prior to doxorubicin 25 mg/kg; hearts 16 hr after doxorubicin
Procedure: After mice were sacrificed, hearts were perfused with ice-cold PBS, quickly removed, embedded in OCT compound (Fisher Scientific), and snap-frozen in liquid nitrogen. The heart was sectioned to 5 μm-thick slices using a cryostat. Heart sections were stored at −80° C. until immunofluorescence staining was performed. Heart sections were rinsed with PBS at room temperature, fixed in BD Cytofix/Cytoperm solution (BD Biosciences) for 15 m, washed in PBS, and permeabilized in BD Perm/Wash solution for 30 m. Heart sections were first blocked with BSA (2 mg/ml) for 30 m, then incubated with an mouse monoclonal anti-γ-H2AX antibody conjugated with Alexa Fluor 555 (Clone N1-431, BD Biosciences) for 1 h. Nuclei were stained with DAPI (Sigma, 1 μg/ml PBS), and the slides were sealed for examination with an Olympus epifluorescence microscope (Model BX51). To quantify DSBs, the numbers of γ-H2AX-positive nuclei and the total nuclei were counted in 5 microscopic fields (400×) per section. For each mouse, five heart sections were counted to determine the percentage of γ-H2AX-positive nuclei.
To further confirm the cardio-protective effect of Dex, DNA double strand breaks were assessed in heart tissues. Dexrazoxane (100 mg/kg) was injected (ip) 8 hrs prior to doxorubicin (25 mg/kg) treatment. Hearts were harvested 16 hr after doxorubicin treatment. The percentage of γH2AX-positive nuclei was counted in 5 fields (400×) in each heart section. Five sections were counted in each heart to determine the average percentage of γH2AX-positive nuclei.

Top2a = target: T2, Top2a (Homo sapiens, UniProt P11388); test: Immunoblot of Top2a in U2OS cells treated with Dex and/or MG132; type: cell-based; details: 100 mM Dex for 2, 4, or 6 hours
T2 construct: endogenous in cells; host or cells: U2OS
Procedure: as §1, §2

Top2b [3] = target: T3, Top2b (Mus musculus, UniProt Q64511); test: Western blot of Top2b protein levels in heart tissue after dexrazoxane; type: in vivo; details: dexrazoxane 100 mg/kg i.p.
T3 construct: Frozen tissues were homogenized in lysis buffer and sonicated to extract proteins for western blotting; from tissue; host or cells: mouse heart
Procedure: Expression of Top2b was examined in the hearts of mice. After sacrifice, the heart was quickly removed and homogenized immediately in lysis buffer. After homogenization, the lysate was sonicated at 4° C. and an aliquot was removed for protein concentration measurement. The lysate was stored at −80° C. for western blot analysis. 20 μg of lysate proteins were electrophoresed and transferred to PVDF membranes. Blots were blocked with 5% non-fat dry milk, and incubated overnight at 4° C. with anti-Top2b antibody (Abcam). To detect mitochondrial proteins, the mitochondria were isolated from cardiomyocytes. The cardiomyocytes were isolated with a Langendorff perfusion system according to a published protocol3. Briefly, heart was removed and rinsed with ice-cold PBS twice before connecting to a Langendorff apparatus through the aorta. The heart was perfused first with perfusion buffer for 3 m at 37° C. (3 ml/min), then digestion buffer (enzyme-containing) buffer at 37° C. for 8-10 m. The heart was disintegrated manually and the tissue/cells were separated by using forceps. The tissue/cell suspension was incubated for another 3-5 m in digestion buffer, then triturate the cells gently using a 1 ml pipette before adding stopping buffer. After purification by centrifugation the mitochondria were isolated from the cardiomyocytes with a kit (Cat. No. MS853, Mitosciences) for separating mitochondria from nuclei and cytosol. The isolated mitochondria were homogenized in lysis buffer and sonicated before being stored at −80° C. until use. 20 μg of lysate proteins were electrophoresed and transferred to PVDF membranes. Blots were blocked incubated overnight at 4° C. with anti-Ndufa3 (Sigma), anti-Atp5a (Abcam) or anti-Sdha antibodies (Abcam). After incubation with HRP-conjugated secondary antibodies for 40 m at room temperature, the blots were detected with a luminol-based detection kit (ECL, GE Health Care).
To test the effect of dexrazoxane (Dex) on Top2b protein levels, mice were treated with dexrazoxane (100 mg/kg, i.p.). At different time points following treatment hearts were removed under anesthesia and perfused with PBS to remove blood. Each heart was cut into 10 pieces and snap-frozen in liquid nitrogen. Frozen tissues were homogenized in lysis buffer and sonicated to extract proteins for western blotting.

T3 sequence (Q64511 2-1612 limits assumed): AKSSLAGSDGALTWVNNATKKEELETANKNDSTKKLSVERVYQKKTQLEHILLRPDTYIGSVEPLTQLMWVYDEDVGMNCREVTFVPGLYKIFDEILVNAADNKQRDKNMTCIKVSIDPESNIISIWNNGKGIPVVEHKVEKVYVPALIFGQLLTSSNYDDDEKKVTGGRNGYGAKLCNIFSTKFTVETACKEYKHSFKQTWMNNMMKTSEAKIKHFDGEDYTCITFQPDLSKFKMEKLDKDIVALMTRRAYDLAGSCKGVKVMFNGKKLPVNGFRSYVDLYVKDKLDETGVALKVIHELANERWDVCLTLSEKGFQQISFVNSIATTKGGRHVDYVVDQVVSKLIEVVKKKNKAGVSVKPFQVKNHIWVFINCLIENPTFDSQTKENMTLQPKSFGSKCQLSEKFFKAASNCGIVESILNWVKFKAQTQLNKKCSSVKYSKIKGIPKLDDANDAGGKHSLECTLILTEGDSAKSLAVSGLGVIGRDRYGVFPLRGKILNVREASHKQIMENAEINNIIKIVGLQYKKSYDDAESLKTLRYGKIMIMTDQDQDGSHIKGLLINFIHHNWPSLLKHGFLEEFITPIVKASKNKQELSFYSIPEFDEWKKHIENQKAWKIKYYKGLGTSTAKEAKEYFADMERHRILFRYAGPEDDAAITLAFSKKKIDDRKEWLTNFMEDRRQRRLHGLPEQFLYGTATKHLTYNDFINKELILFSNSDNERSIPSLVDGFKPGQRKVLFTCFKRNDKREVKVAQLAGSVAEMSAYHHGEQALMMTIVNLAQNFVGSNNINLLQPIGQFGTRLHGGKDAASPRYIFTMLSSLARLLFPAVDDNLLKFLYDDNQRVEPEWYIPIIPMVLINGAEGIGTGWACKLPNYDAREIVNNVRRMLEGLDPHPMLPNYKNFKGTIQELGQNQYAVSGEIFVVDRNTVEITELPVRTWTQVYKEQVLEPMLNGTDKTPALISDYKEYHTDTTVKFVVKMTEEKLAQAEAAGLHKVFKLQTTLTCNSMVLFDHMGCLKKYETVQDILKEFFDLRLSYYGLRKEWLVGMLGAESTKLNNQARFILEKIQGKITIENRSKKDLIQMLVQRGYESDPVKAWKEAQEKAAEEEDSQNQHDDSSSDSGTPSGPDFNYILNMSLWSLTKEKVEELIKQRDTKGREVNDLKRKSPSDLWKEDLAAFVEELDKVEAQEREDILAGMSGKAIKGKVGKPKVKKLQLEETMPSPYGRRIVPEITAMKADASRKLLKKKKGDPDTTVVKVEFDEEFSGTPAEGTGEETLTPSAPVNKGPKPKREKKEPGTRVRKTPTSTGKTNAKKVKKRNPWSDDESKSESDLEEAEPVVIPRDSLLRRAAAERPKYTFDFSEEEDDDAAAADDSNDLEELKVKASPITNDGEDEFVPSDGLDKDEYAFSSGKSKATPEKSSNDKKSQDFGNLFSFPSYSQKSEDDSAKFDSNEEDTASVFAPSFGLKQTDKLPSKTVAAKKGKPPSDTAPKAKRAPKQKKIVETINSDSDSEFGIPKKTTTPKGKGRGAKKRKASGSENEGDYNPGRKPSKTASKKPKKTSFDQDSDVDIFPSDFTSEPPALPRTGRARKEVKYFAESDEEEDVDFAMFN
T1 sequence (Q02880 2-1626 limits assumed): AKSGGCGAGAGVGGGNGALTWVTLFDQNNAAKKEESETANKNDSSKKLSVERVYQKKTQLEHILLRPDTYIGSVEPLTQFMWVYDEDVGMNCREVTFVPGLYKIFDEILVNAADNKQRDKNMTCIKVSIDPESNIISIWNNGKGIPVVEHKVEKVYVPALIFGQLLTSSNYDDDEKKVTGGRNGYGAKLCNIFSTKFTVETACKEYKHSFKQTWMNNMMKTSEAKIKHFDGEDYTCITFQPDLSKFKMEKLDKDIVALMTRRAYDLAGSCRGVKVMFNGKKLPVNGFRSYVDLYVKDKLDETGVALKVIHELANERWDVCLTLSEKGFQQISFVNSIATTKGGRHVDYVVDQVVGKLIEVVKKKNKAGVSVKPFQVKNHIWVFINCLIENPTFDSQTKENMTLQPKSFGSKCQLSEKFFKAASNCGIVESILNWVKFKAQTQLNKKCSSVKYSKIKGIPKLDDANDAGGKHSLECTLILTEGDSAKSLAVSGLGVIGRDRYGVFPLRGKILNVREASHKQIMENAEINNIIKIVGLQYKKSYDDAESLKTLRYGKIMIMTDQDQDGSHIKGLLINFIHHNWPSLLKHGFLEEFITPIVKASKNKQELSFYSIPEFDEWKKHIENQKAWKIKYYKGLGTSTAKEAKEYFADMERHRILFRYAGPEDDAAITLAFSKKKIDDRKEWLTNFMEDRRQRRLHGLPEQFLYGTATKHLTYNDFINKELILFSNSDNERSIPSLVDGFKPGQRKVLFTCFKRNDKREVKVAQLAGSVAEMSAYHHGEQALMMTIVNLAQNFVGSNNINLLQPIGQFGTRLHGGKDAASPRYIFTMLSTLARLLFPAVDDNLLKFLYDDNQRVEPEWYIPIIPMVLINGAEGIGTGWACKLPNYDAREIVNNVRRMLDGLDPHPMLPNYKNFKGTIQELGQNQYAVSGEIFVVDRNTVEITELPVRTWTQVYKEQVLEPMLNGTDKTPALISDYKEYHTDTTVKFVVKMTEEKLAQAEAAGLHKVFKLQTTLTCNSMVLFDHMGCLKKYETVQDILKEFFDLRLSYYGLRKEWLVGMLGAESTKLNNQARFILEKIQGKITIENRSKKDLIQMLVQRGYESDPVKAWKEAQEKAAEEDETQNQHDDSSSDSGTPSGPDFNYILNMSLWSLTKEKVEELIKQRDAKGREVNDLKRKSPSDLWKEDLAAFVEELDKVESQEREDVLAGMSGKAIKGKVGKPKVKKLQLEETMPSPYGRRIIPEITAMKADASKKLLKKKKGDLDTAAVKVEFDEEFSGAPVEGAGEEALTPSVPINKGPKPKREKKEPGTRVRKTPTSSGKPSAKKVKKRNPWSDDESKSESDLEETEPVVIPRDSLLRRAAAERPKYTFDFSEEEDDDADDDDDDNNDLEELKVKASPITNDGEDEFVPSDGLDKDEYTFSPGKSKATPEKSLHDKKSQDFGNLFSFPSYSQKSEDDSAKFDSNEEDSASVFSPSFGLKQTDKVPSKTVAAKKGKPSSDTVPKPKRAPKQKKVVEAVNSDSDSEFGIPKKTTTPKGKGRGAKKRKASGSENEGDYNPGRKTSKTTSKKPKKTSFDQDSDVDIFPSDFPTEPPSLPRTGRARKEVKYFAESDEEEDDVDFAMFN
T2 sequence (P11388 whole entry): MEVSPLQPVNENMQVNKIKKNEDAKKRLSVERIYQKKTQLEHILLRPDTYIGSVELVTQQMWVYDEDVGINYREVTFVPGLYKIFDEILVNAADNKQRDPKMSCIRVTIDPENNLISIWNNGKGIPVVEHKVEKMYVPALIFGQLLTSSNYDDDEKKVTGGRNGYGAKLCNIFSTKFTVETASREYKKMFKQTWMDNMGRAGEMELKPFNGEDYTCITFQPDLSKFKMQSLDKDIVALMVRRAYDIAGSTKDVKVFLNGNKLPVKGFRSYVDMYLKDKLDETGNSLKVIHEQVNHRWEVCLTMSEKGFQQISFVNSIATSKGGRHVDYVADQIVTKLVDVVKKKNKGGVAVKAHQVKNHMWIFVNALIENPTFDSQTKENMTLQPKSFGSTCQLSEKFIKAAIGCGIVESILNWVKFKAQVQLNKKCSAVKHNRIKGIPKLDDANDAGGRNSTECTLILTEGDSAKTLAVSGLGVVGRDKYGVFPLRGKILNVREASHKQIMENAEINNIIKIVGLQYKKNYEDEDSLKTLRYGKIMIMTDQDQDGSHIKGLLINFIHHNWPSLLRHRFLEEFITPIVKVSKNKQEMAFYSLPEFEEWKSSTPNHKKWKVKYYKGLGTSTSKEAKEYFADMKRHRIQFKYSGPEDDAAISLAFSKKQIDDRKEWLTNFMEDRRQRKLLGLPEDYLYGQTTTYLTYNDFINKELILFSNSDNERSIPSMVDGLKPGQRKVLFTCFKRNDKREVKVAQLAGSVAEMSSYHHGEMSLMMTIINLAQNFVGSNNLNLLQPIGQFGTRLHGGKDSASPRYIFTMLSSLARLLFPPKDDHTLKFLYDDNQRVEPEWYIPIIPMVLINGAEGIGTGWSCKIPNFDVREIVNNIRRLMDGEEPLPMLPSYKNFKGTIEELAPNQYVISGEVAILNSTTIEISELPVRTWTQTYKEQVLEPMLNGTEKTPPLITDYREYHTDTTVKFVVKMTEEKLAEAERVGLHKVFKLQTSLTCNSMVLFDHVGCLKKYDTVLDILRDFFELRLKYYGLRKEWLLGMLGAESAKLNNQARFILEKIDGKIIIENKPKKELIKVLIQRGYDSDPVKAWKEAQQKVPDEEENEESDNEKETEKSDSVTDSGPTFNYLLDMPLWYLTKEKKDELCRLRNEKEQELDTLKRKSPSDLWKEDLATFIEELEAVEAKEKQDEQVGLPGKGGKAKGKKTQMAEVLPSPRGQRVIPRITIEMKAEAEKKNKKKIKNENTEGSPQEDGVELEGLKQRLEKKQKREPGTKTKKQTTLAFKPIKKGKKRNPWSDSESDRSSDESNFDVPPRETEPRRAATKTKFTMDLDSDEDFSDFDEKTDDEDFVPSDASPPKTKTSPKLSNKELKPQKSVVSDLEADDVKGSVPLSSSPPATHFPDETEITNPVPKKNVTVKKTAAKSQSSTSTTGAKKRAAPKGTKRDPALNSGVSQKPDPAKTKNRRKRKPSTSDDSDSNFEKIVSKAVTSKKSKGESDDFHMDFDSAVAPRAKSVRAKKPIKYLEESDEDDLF

SMILES: CC(C)C[C@@H](C=O)NC(=O)[C@H](CC(C)C)NC(=O)[C@H](CC(C)C)NC(=O)OCc1ccccc1 [MG132] (Cbz-Leu-Leu-Leu-aldehyde)
- Effect on Dex-mediated Top2b degradation (Top2b [1]; 10 mM MG132 with 100 mM Dex, 2, 4, or 6 hours): inhibited

SMILES: CC/C(=C(\c1ccccc1)c1ccc(OCCN(C)C)cc1)c1ccccc1 [Tamoxifen, tamoxifen]
- Effect on ejection fractions (mouse heart; tamoxifen 25 mg/kg gavage once a day for 5 days, all three Top2b genotype groups): did not significantly affect

SMILES: C[C@@H](CN1CC(=O)NC(=O)C1)N1CC(=O)NC(=O)C1 [dexrazoxane]
- Ejection fraction, Dex in combination with doxorubicin (mouse heart; dexrazoxane 100 mg/kg ip 8 hrs prior to doxorubicin 5 mg/kg ip once a week for 5 weeks): unchanged
- Ejection fraction, Dex alone (mouse heart; mice, dexrazoxane 100 mg/kg ip alone): unchanged
- Protection against doxorubicin-induced apoptosis in the heart (TUNEL-positive nuclei) (heart sections): protects against doxorubicin-induced apoptosis
- Degradation of Top2b (Top2b [1]; 100 mM Dex for 2, 4, or 6 hours): caused degradation of Top2b
- Protection against doxorubicin-induced DNA double strand breaks in the heart (γH2AX-positive nuclei) [2]: protects against doxorubicin-induced DNA double strand breaks
- Degradation of Top2a (Top2a): but not Top2a
- Time point at which Top2b levels begin to recover (Top2b [3]): 12 h
- Top2b protein level in the heart at 6 hours (Top2b [3]; 6 hours after therapy): nearly undetectable
- Top2b protein level in the heart at 24 hours (Top2b [3]; 24 hours): still noticeably reduced
- Top2b protein levels in the heart (Top2b [3]; time course): greatly reduced
